Positions count from the first letter of the chain named.
How the values were obtained:
KGA_ H519Q/D520K = target: T1, KGA_ H519Q/D520K (Homo sapiens, UniProt O94925, D520K/H519Q); assay: Glutaminase activity assay, KGA mutant H519Q/D520K; assay type: biochemical
T1 construct: a KGA cDNA fragment of 1644 bp (residues Leu123-Leu669); His-tag (N); made in house; host or cells: Escherichia coli
T1 sequence (O94925 123-669 H519Q/D520K): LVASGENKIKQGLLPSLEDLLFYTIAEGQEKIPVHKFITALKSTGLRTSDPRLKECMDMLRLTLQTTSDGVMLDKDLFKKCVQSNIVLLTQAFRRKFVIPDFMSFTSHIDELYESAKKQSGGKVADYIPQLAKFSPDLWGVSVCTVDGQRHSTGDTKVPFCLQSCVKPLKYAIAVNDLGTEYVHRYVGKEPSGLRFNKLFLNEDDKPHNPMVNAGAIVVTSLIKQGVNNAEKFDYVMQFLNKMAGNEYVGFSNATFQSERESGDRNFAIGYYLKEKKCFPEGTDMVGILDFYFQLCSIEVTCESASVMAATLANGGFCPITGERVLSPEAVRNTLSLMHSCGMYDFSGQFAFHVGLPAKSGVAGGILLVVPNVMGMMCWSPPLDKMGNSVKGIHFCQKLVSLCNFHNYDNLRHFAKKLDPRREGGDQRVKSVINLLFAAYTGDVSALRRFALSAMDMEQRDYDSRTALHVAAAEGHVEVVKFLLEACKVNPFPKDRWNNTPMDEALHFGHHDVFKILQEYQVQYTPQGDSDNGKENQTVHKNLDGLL
Method: (§1) Human glutaminase activity was measured using a two-step assay as described previously. A microtiter assay format was used to facilitate the collection of multiple data points. Typically, 10 μl of compound, which was dissolved in DMSO, was added to 80 μl of an initial assay mix (0.1 mM hKGA, 0.2 mM EDTA and 50 mM Tris/acetate, pH 8.6). Samples were incubated at 25°C for 10 min and then 10 μl of 200 mM glutamine were added to the reaction mix. After adding glutamine, the reactions were incubated at 37°C for 60 min and then quenched by the addition of 10 μl of 0.6 M HCl. Subsequently, 100 μl of a second reaction mixture (3.7 units of purified bovine liver glutamate dehydrogenase, 160 mM Tris/acetate [pH 9.4], 400 mM hydrazine, 5 mM ADP and 2 mM NAD^+) was added to the stopped first reaction mixture and incubated for 30 min at 25°C. The absorbance at 340 nm was measured using a Wallac Victor2V plate reader (PerkinElmer), fitted with a 340 nm excitation filter. Sample absorbance was measured against a blank, containing no human glutaminase.
Site-directed mutagenesis was performed on the pET28a(+)-GAB or pET28a(+)-KGA plasmids using PfuUltra II Fusion HS DNA polymerase (Agilent Technologies) to create the GAB and KGA mutants. […] The sequence alignment was compared with crystal structure of the GAC (PDB code: 3UO9) and the resulting model of GAB was analyzed using the Swiss-PDB server. […]

KGA_F318Y/F322S = target: T2, KGA_F318Y/F322S (Homo sapiens, UniProt O94925, F318Y/F322S); assay: Glutaminase activity assay, KGA mutant F318Y/F322S; assay type: biochemical
T2 construct: a KGA cDNA fragment of 1644 bp (residues Leu123-Leu669); His-tag (N); made in house; host or cells: Escherichia coli
T2 sequence (O94925 123-669 F318Y/F322S): T1 sequence (O94925 123-669 H519Q/D520K) with F196Y, F200S, Q397H, K398D
Method: as §1, with “Typically, 10 μl of compound, which was dissolved in DMSO, was added to 80 μl of an initial assay mix (0.1 mM hKGA, 0.2 mM EDTA and 50 mM Tris/acetate, pH 8.6).” left out
Site-directed mutagenesis was performed on the pET28a(+)-GAB or pET28a(+)-KGA plasmids using PfuUltra II Fusion HS DNA polymerase (Agilent Technologies) to create the GAB and KGA mutants. The deep view program (Version 3.7) of the Swiss-MODEL server was used to generate the three dimensional structure of homologous modeled GAB. Using the integrated sequence alignment tools and structural superimposition algorithms, the target sequence was mapped on the modeling templates.

- IC50 (KGA_ H519Q/D520K): 0.23 ± 0.03 µM
- IC50 (KGA_F318Y/F322S): 2.4 µM
SMILES: CCCCCCCCCCCCCC(CC1=CC(=O)C=C(OC)C1=O)OC(C)=O (centres unmarked) [AV-1]
